Test results published in patent US20250276977A1, “TYK2 INHIBITORS AND USES THEREOF” (Alumis Inc., priority 2019, published 2025).

Each molecule was assayed on INFα induced pSTAT5 (assay: INFα induced pSTAT5 in human PBMC). Conditions: Homo sapiens, PBMC, INFα 5000 units/ml, read-out: p-STAT5 IC50.
Assay type: cell-based
Description: Fresh Human PBMCs were resuspended in RPMI 1640 medium with 10% FBS. Cells were seeded in a round bottom 96-well plate at the concentration of 200,000 cells/well. A 10-point dilution series of test compound (top dose 10 uM, 1:5 dilution) was added to the well using the liquid dispenser (Tecan D300e) and incubated for 1 hour at 37 C. Then human INFα recombinant protein (R&D Systems) was added to the well at the final concentration of 5000 units/ml and incubated for 15 minutes at 37 C. Cell lysates were prepared and analyzed by Phospho STAT3 (Tyr705) cellular kit (Cisbio) or Phospho STAT5 (Tyr693) Kit (Meso Scale Discovery) following manufacturer's protocol.
For calculation of the inhibition rate, the relative pSTAT signal of each well=pSTAT signal of each well−the average pSTAT signal of baseline.
The inhibition %=(the average pSTAT signal of INFα treatment wells—the relative of pSTAT signal in each compound containing well)/the average pSTAT signal of INFα treatment wells * 100%
The curve was plotted as the inhibition % (y-axis) vs. compounds concentration (x-axis) and was fitted with log(inhibitor) vs. normalized response—Variable slope by GraphPad Prism7.0.

Row | Compound | IC50
1 | CNc1cc2nn3c(cnc13)C(=O)NCCOCc1cccc(OC)c1N2 [Example 9] | 923 nM
2 | CNc1cc2nn3c(cnc13)C(=O)N[C@@H](C)COCc1ccc(OC)c(c1)N2 [Example 11] | 436 nM
3 | CNc1cc2nc3c(cnn13)C(=O)NC(C)COCc1ccc(OC)c(c1)N2 (stereo not shown) [Example 12] | 2.2 nM
4 | CNc1cc2nn3c(cnc13)C(=O)N[C@H](C)COCc1cc(F)c(OC)c(c1)N2 [Example 18, (7R,E)-3^5-fluoro-3^6-methoxy-7-methyl-1^8-(methylamino)-5-oxa-2,8-diaza-1(6,3)-imidazo[1,2-b]pyridazina-3(1, 3)-benzenacyclononaphan-9-one] | 1.3 nM
5 | CNc1cc2nn3c(cnc13)C(=O)NC1(CC1)COCc1ccc(OC)c(c1)N2 [Example 20, (E)-6′-methoxy-8′-(methylamino)spiro[cyclopropane-1,7′-5-oxa-2,8-diaza-1(6,3)-imidazo[1,2-b]pyridazina-3(1,3)-benzenacyclononaphan]-9′-one] | 15.3 nM
6 | CNc1cc2nn3c(cnc13)C(=O)NC(C)CCn1ncc3cc(OC)c(cc31)N2 (stereo not shown) [Example 21, (E)-3^5-methoxy-6-methyl-1^8-(methylamino)-31H-2,7-diaza-1(6,3)-imidazo [1,2-b]pyridazina-3(6,1)-indazolacyclooctaphan-8-one] | 102 nM
7 | CNc1cc2nn3c(cnc13)C(=O)N[C@H]1C[C@H](C1)OCc1ccc(OC)c(c1)N2 [Example 22] | 10.7 nM
8 | CNc1cc2nc3c(cnn13)C(=O)N[C@H](C)COCc1cc(c3oc(C)nc3c1)N2 [Example 34] | 2.5 nM
9 | CNc1cc2nc3c(cnn13)C(=O)N[C@H](C)COCc1cc(c3nn(C)nc3c1)N2 [Example 35] | 1.7 nM
10 | CNc1cc2nc3c(cnn13)C(=O)N[C@H](C)COCc1cc(c3nnn(C)c3c1)N2 [Example 36] | 0.7 nM
11 | CNc1cc2nn3c(cnc13)C(=O)N[C@H](C)COCc1ccc(OC)c(c1)N2 [Example 42] | 13.6 nM
12 | CNc1cc2nc3c(cnn13)C(=O)N[C@H](C)COCc1cc(F)cc(c1)N2 [Example 46] | 2.8 nM
13 | CNc1cc2nc3c(cnn13)C(=O)N[C@H](C)COCc1cc(Br)c(OC)c(c1)N2 [Example 48] | 16.7 nM
14 | CNc1cc2nc3c(cnn13)C(=O)N[C@H](C)COCc1cc(nc(N3CCCC3=O)c1)N2 [Example 49] | 1.7 nM
15 | CNc1cc2nc3c(cnn13)C(=O)N[C@H](C)COCc1cc(c(OC)cc1F)N2 [Example 52, (R, 1^3E, 1^4E)-3^4-fluoro-3^6-methoxy-7-methyl-1^7-(methylamino)-5-oxa-2,8-diaza-1(5,3)-pyrazolo[1,5-a]pyrimidina-3(1,3)-benzenacyclononaphan-9-one] | 5.9 nM
16 | CNc1cc2nc3c(cnn13)C(=O)N[C@H](C)COCc1cc(c3cn(C)nc3c1)N2 [Example 53, (R, 1^3E, 1^4E, 3^4E)-3^2,7-dimethyl-1^7-(methylamino)-3^2H-5-oxa-2,8-diaza-1(5,3)-pyrazolo[1,5-a]pyrimidina-3(4,6)-indazolacyclononaphan-9-one] | 9.4 nM
17 | CNc1cc2nc3c(cnn13)C(=O)N[C@H](C)COCc1cc(c3cnn(C)c3c1)N2 [Example 54, (R, 1^3E, 1^4E)-31,7-dimethyl-1^7-(methylamino)-31H-5-oxa-2,8-diaza-1(5,3)-pyrazolo[1,5-a]pyrimidina-3(4,6)-indazolacyclononaphan-9-one] | 0.3 nM
18 | CNc1cc2nc3c(cnn13)C(=O)N[C@H](C)COCc1ccc(F)c(c1)N2 [Example 56, (R, 1^3E, 1^4E)-3^6-fluoro-7-methyl-1^7-(methylamino)-5-oxa-2,8-diaza-1(5,3)-pyrazolo[1,5-a]pyrimidina-3(1,3)-benzenacyclononaphan-9-one] | 28.8 nM

More lines, now with the values ahead:

Row | IC50 | Compound
19 | 151 nM | CNc1cc2nn3c(cnc13)C(=O)NCCCOc1cnc(OC)c(c1)N2 [Example 5]
20 | 13.9 nM | CNc1cc2nn3c(cnc13)C(=O)NCC(C)OCc1ccc(OC)c(c1)N2 (stereo not shown) [Example 8]
21 | 460 nM | CNc1cc2nn3c(cnc13)C(=O)NCCOC(C)c1ccc(OC)c(c1)N2 (stereo not shown) [Example 13]
22 | 3 nM | CNc1cc2nn3c(cnc13)C(=O)N[C@H](C)COCc1cnc(OC)c(c1)N2 [Example 14]
23 | 3.6 nM | CNc1cc2nn3c(cnc13)C(=O)NC(C)COCc1cc(c(OC)cc1F)N2 (stereo not shown) [Example 16]
24 | 1 nM | CNc1cc2nn3c(cnc13)C(=O)N[C@H](C)COCc1cc(c(OC)cc1F)N2 [Example 17, (E)-3^4-fluoro-3^6-methoxy-7-methyl-1^8-(methylamino)-5-oxa-2,8-diaza-1(6,3)-imidazo[1,2-b]pyridazina-3(1,3)-benzenacyclononaphan-9-one]
25 | 2.1 nM | CNc1cc2nc3c(cnn13)C(=O)N[C@H](C)COCc1ccc(OC)c(c1)N2 [Example 25]
26 | 7.2 nM | CNc1cc2nc3c(cnn13)C(=O)N[C@H](C)COCc1cc(c(OC)cn1)N2 [Example 27]
27 | 8.3 nM | CNc1cc2nc3c(cnn13)C(=O)N[C@H](C)COCc1cc(c(=O)n(-c3ccccn3)c1)N2 [Example 28]
28 | 3.1 nM | CNc1cc2nc3c(cnn13)C(=O)N[C@H](C)COCc1cc(c3nn(C)cc3c1)N2 [Example 29]
29 | > 200 nM | CNc1cc2nc3c(cnn13)C(=O)N[C@@H](C)C(C)OCc1ccc(OC)c(c1)N2 (stereo partly shown) [Example 30]
30 | 90.1 nM | CNc1cc2nc3c(cnn13)C(=O)N[C@H](C)COCc1cc(c3c(c1)nnn3C)N2 [Example 37]
31 | > 200 nM | CNc1cc2nc3c(cnn13)C(=O)N[C@H](C)COc1ccc(OC)c(c1)N2 [Example 38]
32 | 2.4 nM | CNc1cc2nc3c(cnn13)C(=O)N[C@H](C)COCc1ccc(C#N)c(c1)N2 [Example 40]
33 | 3.6 nM | CNC(=O)c1ccc2cc1Nc1cc(NC)n3ncc(c3n1)C(=O)N[C@H](C)COC2 [Example 41]
34 | 3.8 nM | CNc1cc2nc3c(cnn13)C(=O)N[C@H](C)COCc1ccc(OC(F)(F)F)c(c1)N2 [Example 43]
35 | 2 nM | CNc1cc2nc3c(cnn13)C(=O)N[C@H](C)COCc1cc(C#N)cc(c1)N2 [Example 44]
36 | 1.1 nM | CNc1cc2nc3c(cnn13)C(=O)N[C@H](C)COCc1cc(cc(OC)c1)N2 [Example 45]
37 | > 1000 nM | CNc1cc2nn3c(cnc13)C(=O)N[C@H](C)COCc1nc(C)cc(n1)N2 [Example 50, (7R,E)-3^6,7-dimethyl-1^8-(methylamino)-5-oxa-2,8-diaza-1(6,3)-imidazo[1,2-b]pyridazina-3(4,2)-pyrimidinacyclononaphan-9-one]
38 | > 200 nM | COc1ccc2nc1Nc1cc(N)n3ncc(c3n1)C(=O)N[C@H](C)COC2 [Example 55, (R, 1^3E, 1^4E)-33-methoxy-7-methyl-1^7-(methylamino)-5-oxa-2,8-diaza-1(5,3)-pyrazolo[1,5-a]pyrimidina-3(2,6)-pyridinacyclononaphan-9-one]

Same assay, conditions: INFα 5000 units/ml, read-out: p-STAT5 IC50

Row | Compound | IC50
39 | CNc1cc2nc3c(cnn13)C(=O)N[C@H](C)C(C)OCc1ccc(OC)c(c1)N2 (single isomer, unassigned) [Example 32] | 0.7 nM
40 | CNc1cc2nc3c(cnn13)C(=O)N[C@H](C)C(C)OCc1ccc(OC)c(c1)N2 (single isomer, unassigned) [Example 33] | 42.8 nM
41 | CNc1cc2nc3c(cnn13)C(=O)N[C@H](C)COCc1cnc(OC)c(c1)N2 [Example 26] | > 200 nM

The remaining lines, values ahead:

Row | IC50 | Compound
42 | > 200 nM | CNc1cc2nc3c(cnn13)C(=O)N[C@@H](C)C(C)OCc1ccc(OC)c(c1)N2 (stereo partly shown) [Example 31]
43 | 2.4 nM | CNc1cc2nc3c(cnn13)C(=O)N[C@H](C)COCc1cnc(OC)c(c1)N2 [Example 47]
